Key:
[1] = test system: SKMEL-28 cells; assay: Cell cycle analysis by flow cytometry; assay type: cell-based, human; conditions: 5 µM DDA, 48 h
Description: Control and DDA-treated cells were fixed in 70% ethanol and then washed with PBS. Cells were incubated with 100 μg/ml RNase A for 30 min at 37 °C, permeabilized with 0.25% Tween-20, and stained with 50 μg/ml propidium iodide (PI) for 30 min at 37 °C. The DNA content of stained cells was analyzed by flow cytometry. The fraction of cells in sub-G1 phase was calculated using flowJo software (Ashland, Oregon). Data were obtained from 10^5 viable cells. […]

[2] = test system: primary AML cells; assay: Patient-derived primary AML cells engrafted into NSG mice; assay type: in vivo; conditions: three patients; 20 mg/kg/d i.p., 19 days
Description: The engraftment of human primary AML cells was performed on NSG mice. Briefly, human primary AML cells, HL60 cells or normal CD34+ cells were resuspended in PBS, and 0.8 × 10^6 to 2 × 10^6 viable trypan blue-negative cells were injected intravenously into NSG mice that had been previously irradiated for 24 h with 2.25 Gy. Two and a half weeks after the injection of human cells, mice were treated with DDA (20 mg/kg/day by IP injection) or vehicle as control for 2, 3 weeks, after which the engraftment of human AML and normal hematopoietic cells was measured in the bone marrow, spleen and brain by quantifying the percentage of hCD45+CD33+ cells by flow cytometry. The viability of AML cells was established by quantifying the percentage of hCD45+CD33+Annexin-V- cells.

[3] = test system: B16F10 cells; assay: Clonogenicity (colony formation) inhibition; assay type: cell-based; conditions: Mus musculus, B16-F10; B16F10 (M); 72 h; read-out: Clono IC50
Excerpt: (§1) Supplementary Fig. 1. a DDA inhibited m elanom a colony form ation. Melanom a cells were […]
(§2) a 0.5% solution of crystal violet in water and analyzed by microscopy. Images are representative of 5 independent experiments. b Evaluation of DDA-induced cytotoxicity (cytotox) and clonogenicity (clono) inhibition in a subset of human (H) and mouse (M) m elanom a cell lines. T he BRaf status in m elanom a cells lines is shown. […]

[4] = test system: SKMEL-28 cells; assay: Clonogenicity (colony formation) inhibition; assay type: cell-based; conditions: Homo sapiens, SK-MEL-28; SKMEL-28 (H); 72 h; read-out: Clono IC50
Excerpt: as §1, §2

[5] = test system: HL60 tumors; assay: Subcutaneous HL60 tumor xenograft; assay type: in vivo, mice
Description: Exponentially growing cells were harvested, washed twice in PBS then resuspended in PBS. SKMEL-28, shSKMEL-28 clones (5 × 10^6 cells) and B16F10 (3 × 10^5) cells were injected subcutaneously (s.c.) into the flank of nude mice. HL60, KG1 and shKG1-clones (5 × 10^6) were inoculated s.c. into the flanks of NOD/SCID mice. When tumors were palpable, animals (n = 10–20 mice per group, as indicated) were randomized to receive either DDA (20 mg/kg) intraperitoneally (i.p.) or 40 mg/kg by oral gavage (p.o), once a day, or vehicle solvent for the indicated time. Animals were examined daily and body weights were measured twice a week. In all experiments, tumor volume was determined by direct measurement with a caliper and was calculated using the formula (width^2 × length)/2. At the end of experiments, mice were sacrificed and tumors were excised and divided for intra-tumoral DDA quantification, immunoblotting, or immunohistochemistry analyses. […]
(n=16- 20 mice/group) engrafted with KG1 cells or HL60 cells were treated with DDA (20 mg/kg/day, i.p.) or solvent vehicle (control). Tumor growth was monitored over time and was analyzed for significance using repeated measures ANOVA (***P<0.001). The mean tumor volumes ± SEM are shown. e Average tumor weight at the end of the experiments in d. *P<0.5, **P<0.01, ANOVA. f Mean tumor volumes measured at the end of the experiments for HL60 and KG1 graf ted into NOD/SCID or NMRI-Fo x1 -nude mice treated with DDA (40 mg/kg/day, p.o. or 20 mg/kg/day, i.p.) or solvent vehicle (control) (n=10- 20 mice per group). Values represent the means ± S.E.M. (**P<0.01, ***P<0.001, ANOVA). g Histochemical analysis of the expression of LC3 and P62 in HL60 tumor sections isolated from NOD/SCID mice treated or not with DDA (20 mg/kg/day, i.p.). h Quantification of LC3 punctate cells in shCTRL and shLXRβ KG1 tumors. i Quantification of DDA levels in tumors 4 h after the final administration of DDA. j Box plot of TCGA RNA-seq data from patients with melanoma showing that LXRβ is the predominant LXR isoform expressed. […]

CC(C)CCC[C@@H](C)[C@H]1CC[C@H]2[C@@H]3C[C@@H](NCCc4cnc[nH]4)[C@@]4(O)C[C@@H](O)CC[C@]4(C)[C@H]3CC[C@]12C [DDA, Dendrogenin A]
Cell cycle distribution: G0/G1 [1]: 51.80% | Cell cycle distribution: G2/M [1]: 4.93% | Cell cycle distribution: S [1]: 8.99% | Cell cycle distribution: Sub G0/G1 [1]: 34.28% | change in AML cell viability in bone marrow and spleen compared to controls [2]: −19.6 ± 7.6% | change in number of AML cells in bone marrow and spleen compared to controls [2]: −57 ± 15% | IC50 [3]: 1.2e-06 ± 3e-07 M | IC50 [4]: 1400 ± 600 nM | Tumor volume at the end of the experiment ([5]; NMRI-Fox1-nude mice, DDA i.p. 20mg/kg/d (control 726±81)): 203±72 mm3 | Tumor volume at the end of the experiment ([5]; NOD/SCID mice, DDA i.p. 20mg/kg/d (control 2348±204)): 880±101 mm3 | Tumor volume at the end of the experiment ([5]; NOD/SCID mice, DDA p.o. 40mg/kg/d (control 2348±204)): 812±66 mm3

— PMC5712521, “Dendrogenin A drives LXR to trigger lethal autophagy in cancers” (Nature Communications, 2017)
